The source of these data is patent US4629728A, “Antihypoxemic 5-(4-substituted piperazinyl)alkyl-8-substituted quinolines” (ADIR S.A.R.L., priority 1984, dated 1986).

Read-outs that look alike come from different tables or passages of the source.

As a reminder, the ED50 is the midpoint of the dose-response relation.

Test [1] in a line: prolongation of life in acute global ischemic syndrome by intravenous injection of magnesium chloride. In kind it is in vivo. The settings on record: mice; for minimal effective dose: Mus musculus. The method, then:
The compounds of general formula I are tested by their capacity to prolong the life of mice submitted to an acute global ischemic syndrome by intravenous injection of magnesium chloride.

Test [2] can be described thus: cerebral oedema by hypoperfusion of 1 hour (ischemic syndrome) or by triethyl tin per os. In kind it is in vivo. The settings on record: reference substances.
The nature of test [3]: survival in acute global hypoxic syndrome due to inhalation of pure azote. In kind it is in vivo. The settings on record: Mus musculus; mice, intraperitoneal route or per os; read-out: average effective dose (ED50) increasing the survival time by 50% in relation to the control animals. The method, then: In the same way, the compounds of general formula I show a protective effect in mice during an acute global hypoxic syndrome due to inhalation of pure azote. The beneficial action is seen at the same doses as for the previous test. The same effective dose relation is found with the reference substances.
The average effective dose (ED50) increasing the survival time by 50% in relation to the control animals is approximately 3 mg/kg when these compounds are administered by intraperitoneal route or per os particularly with the compounds of Examples 38, 40, 51 and 54 described herein after.

The test system of test [4] is mitochondrias of the cerebral cortex. The test is described as follows: oxidative phosphorylation capacity of mitochondrias of the cerebral cortex after an ischemic syndrome. It is filed as in vivo, rats. The settings on record: ischemied rat, reference products. An excerpt: These same compounds show their pharmacological action vis-a-vis losses of the oxidative phosphorylation capacity of mitochondrias of the cerebral cortex obtained after an ischemic syndrome in rats. […] The same activity is only obtained for the reference products with dihydroergotoxine.

The subject of test [5] is cortical electrogenesis. As to the kind of experiment: iterative anoxias test (losses of cortical electrogenesis). In kind it is in vivo. The settings on record: rats, administered intravenously. The method, then:
The protective activity vis-a-vis the losses of cortical electrogenesis connected to the ischemic or hypoxic syndrome is evaluated by the iterative anoxias test in rats. […] After the second anoxia, whilst the control animals no longer recuperate their electrocortical activity, the animals treated with the compounds in particular the compounds described in Examples 30, 37, 38, 40 and 54 recover it when they have received by IV perfusion 33 micro g/kg of these. The reference substances only restore it later, at the 120th second for eburnamonine or nicergoline.

The mark [6] stands for this setting: ip, intraperitoneal route, MgCl2 i.v., read-out: dose from which life of ischemied mice is significantly prolonged.

Turning to `COc1ccccc1N1CCN(CCc2ccc(OS(C)(=O)=O)c3c2CCCN3)CC1` [Example 30, 5-{2-[4-(2-methoxyphenyl)piperazinyl]ethyl}-8-methylsulfonyloxy-1,2,3,4-tetrahydro quinoline], in test [1] (setting [6]), the minimal effective dose came to 1 mg/kg.
Take `CC[C@]12CCCN3CCc4c(n(c5ccccc45)[C@@](O)(C(=O)OC)C1)[C@@H]32` [vincamine, reference compound]: the minimal effective dose in test [1] (po, per os, reference substances, read-out: effective dose per os (inactive up to / no effect below)) is not below 100 mg/kg. Moreover, in test [2], the “higher dose needed for equally intense anti-oedema protective activity (relative to the compounds)” value was 5 times more.
For `COc1ccccc1N1CCN(CCc2ccc(O)c3c2CCCN3C)CC1` [Example 51, 1-methyl-5-{2-[4-(2-methoxyphenyl)piperazinyl]ethyl}-8-hydroxy-1,2,3,4-tetrahydro quinoline], in test [3], the median effective dose (ED50) was approximately 3 mg/kg.
On to dihydroergotoxine, for which the “activity on mitochondrial oxygen consumption compared with the compounds” value in test [4] is “same activity”. For the same compound, the “activity in iterative anoxias test compared with the compounds” value in test [5] is “comparable activity”. Moreover, the “effective dose per os (inactive up to / no effect below)” value in test [1] (per os, reference substances) is given as more than 10 mg/kg.
As to `CC(=O)N1CCCc2c(CCN3CCN(c4ccccn4)CC3)ccc(O)c21` [Example 38, 1-acetyl-5-{2-[4-(2-pyridyl)piperazinyl]ethyl}-8-hydroxy-1,2,3,4-tetrahydro quinoline], the ED50 in test [3] was approximately 3 mg/kg. The minimal effective dose in test [1] (setting [6]) was 1 mg/kg.
`COc1ccccc1N1CCN(CCc2ccc(OC)c3c2CCCN3C=O)CC1` [Example 54, 1-formyl-5-{-2-[4-(2-methoxyphenyl)piperazinyl]ethyl}-8-methoxy-1,2,3,4-tetrahydro quinoline]: the 50% effective dose (ED50) in test [3] is approximately 3 mg/kg. The minimal effective dose in test [1] (setting [6]) was determined as 1 mg/kg.
Consider `CO[C@]12C[C@@H](COC(=O)c3cncc(Br)c3)CN(C)[C@@H]1Cc1cn(C)c3cccc2c13` [nicergoline], for which the “higher dose needed for equally intense anti-oedema protective activity (relative to the compounds)” value in test [2] is given as 3 times more.
As to `COc1ccccc1N1CCN(CCc2ccc(OC)c3c2CCCN3C(C)=O)CC1` [Example 40, 1-acetyl-5-{2-[4-(2-methoxyphenyl)piperazinyl]ethyl}-8-methoxy-1,2,3,4-tetrahydro quinoline], the ED50 in test [3] was approximately 3 mg/kg. The minimal effective dose in test [1] (setting [6]) was found to be 1 mg/kg.
